Measured values reported in patent publication US6855710B2, “Substituted indolines with an inhibitory effect on various kinases and complexes of CDKs” (Boehringer Ingelheim Pharma KG, priority 1998, dated 2005).

| melting point | SMILES |
| --- | --- |
| 178 to 180 °C | CCOC(=O)CN(C)S(=O)(=O)c1ccc(N/C(=C2\C(=O)Nc3ccccc32)c2ccccc2)cc1 [Example 408, (Z)-3-{1-[4-(N-ethoxycarbonylmethyl-N-methyl-aminosulphonyl)-phenylamino]-1-phenyl-methylidene}-2-indolinone] |
| 188 to 190 °C | CCOC(=O)CN(c1cccc(N/C(=C2\C(=O)Nc3ccccc32)c2ccccc2)c1)S(C)(=O)=O [Example 317, (Z)-3-{1-[3-(N-ethoxycarbonylmethyl-N-methylsulphonyl-amino)-phenylamino]-1-phenyl-methylidene}-2-indolinone] |
| 207 to 210 °C | CC(=O)NCc1ccc(N/C(=C2\C(=O)Nc3ccccc32)c2ccccc2)cc1 [Example 56, (Z)-3-[1-(4-acetylaminomethyl-phenylamino)-1-phenyl-methylidene]-2-indolinone] |
| 225 to 227 °C | CC(=O)NCc1ccc(/C(Nc2ccc(N(CCN(C)C)S(C)(=O)=O)cc2)=C2/C(=O)Nc3ccccc32)cc1 [Example 427, (Z)-3-{1-[4-(N-(2-dimethylaminoethyl)-N-methylsulphonyl-amino)-phenylamino]-1-(4-acetylaminomethyl-phenyl)-methylidene}-2-indolinone] |
| 212 to 214 °C | COC1CCN(CCc2ccc(N/C(=C3\C(=O)Nc4ccc([N+](=O)[O-])cc43)c3ccccc3)cc2)CC1 [Example 261, (Z)-3-{1-[4-(2-(4-methoxypiperidino)-ethyl)-phenylamino]-1-phenyl-methylidene}-5-nitro-2-indolinone] |
| 259 to 262 °C | COc1ccc(/C(Nc2ccc(CN(C)C)cc2)=C2/C(=O)Nc3ccc([N+](=O)[O-])cc32)cc1 [Example 216, (Z)-3-[1-(4-dimethylaminomethyl-phenylamino)-1-(4-methoxyphenyl)-methylidene]-5-nitro-2-indolinone] |
| 268 to 269 °C | CN(C)CCCNS(=O)(=O)c1ccc(N/C(=C2\C(=O)Nc3ccc([N+](=O)[O-])cc32)c2ccccc2)cc1 [Example 403, (Z)-3-{1-[4-(3-dimethylamino-propylaminosulphonyl)-phenylamino]-1-phenyl-methylidene}-5-nitro-2-indolinone] |
| 242 to 243 °C (dec.) | O=C(O)CNCCc1ccc(N/C(=C2\C(=O)Nc3ccc([N+](=O)[O-])cc32)c2ccccc2)cc1 [Example 258, (Z)-3-{1-[4-(2-carboxymethylamino-ethyl)-phenylamino]-1-phenyl-methylidene}-5-nitro-2-indolinone] |
| 269 °C (dec.) | CN(C)CCCc1ccc(N/C(=C2\C(=O)Nc3ccc([N+](=O)[O-])cc32)c2ccccc2)cc1 [Example 283, (Z)-3-{1-[4-(3-dimethylamino-propyl)-phenylamino]-1-phenyl-methylidene}-5-nitro-2-indolinone] |
| 200 to 205 °C | CN(C)CC(=O)NCc1ccc(N/C(=C2\C(=O)Nc3ccccc32)c2ccccc2)cc1 [Example 74, (Z)-3-[1-(4-dimethylaminomethylcarbonylaminomethyl-phenylamino)-1-phenyl-methylidene}-2-indolinone] |
| 267 to 268 °C | Nc1cccc(N/C(=C2\C(=O)Nc3ccccc32)c2ccccc2)c1 [Example 69, (Z)-3-[1-(3-aminophenylamino)-1-phenyl-methylidene]-2-indolinone] |
| 216 to 217 °C | CCCCNC(=O)Nc1ccc(N/C(=C2\C(=O)Nc3ccccc32)c2ccccc2)cc1 [Example 46, (Z)-3-[1-(4-butylaminocarbonylamino-phenylamino)-1-phenyl-methylidene]-2-indolinone] |
| 178 to 181 °C | CCOC(=O)Cc1cccc(N/C(=C2\C(=O)Nc3ccccc32)c2ccccc2)c1 [Example 11, (Z)-3-[1-(3-ethoxycarbonylmethyl-phenylamino)-1-phenyl-methylidene]-2-indolinone] |
| 207 to 209 °C | CC(=O)c1ccc(N/C(=C2\C(=O)Nc3ccccc32)c2ccccc2)cc1 [Example 60, (Z)-3-[1-(4-acetylphenylamino)-1-phenyl-methylidene]-2-indolinone] |
| 200 to 201 °C | CN(Cc1ccccc1)Cc1ccc(N/C(=C2\C(=O)Nc3ccc([N+](=O)[O-])cc32)c2ccccc2)cc1 [Example 238, (Z)-3-{1-[4-(N-benzyl-N-methyl-aminomethyl)-phenylamino]-1-phenyl-methylidene}-5-nitro-2-indolinone] |
| 281 to 283 °C | CN(C)C(=O)CNS(=O)(=O)c1ccc(N/C(=C2\C(=O)Nc3ccc([N+](=O)[O-])cc32)c2ccccc2)cc1 [Example 412, (Z)-3-{1-[4-(dimethylaminocarbonylmethylaminosulphonyl)-phenylamino]-1-phenyl-methylidene}-5-nitro-2-indolinone] |
| 252 to 253 °C | CC1CCN(CCc2ccc(N/C(=C3\C(=O)Nc4ccc([N+](=O)[O-])cc43)c3ccccc3)cc2)CC1 [Example 259, (Z)-3-{1-[4-(2-(4-methylpiperidino)-ethyl)-phenylamino]-1-phenyl-methylidene}-5-nitro-2-indolinone] |
| 245 °C | O=C1Nc2ccc([N+](=O)[O-])cc2/C1=C(/Nc1ccc(CNC2CCCCC2)cc1)c1ccccc1 [Example 278, (Z)-3-{1-[4-(cyclohexylaminomethyl)-phenylamino]-1-phenyl-methylidene}-5-nitro-2-indolinone] |
| 201 to 203 °C | CN(C(=O)CN1CCN(Cc2ccccc2)CC1)c1ccc(N/C(=C2\C(=O)Nc3ccc([N+](=O)[O-])cc32)c2ccccc2)cc1 [Example 104, (Z)-3-{1-[4-(N-(4-benzylpiperazinomethylcarbonyl)-N-methyl-amino)-phenylamino]-1-phenyl-methylidene}-5-nitro-2-indolinone] |
| 289 to 290 °C | Cl.NCC(=O)Nc1ccc(N/C(=C2\C(=O)Nc3ccccc32)c2ccccc2)cc1 |
| 276 to 277 °C | CN(C)CCN(c1ccc(N/C(=C2\C(=O)Nc3ccc([N+](=O)[O-])cc32)c2ccccc2)cc1)S(C)(=O)=O [Example 202, (Z)-3-{1-[4-(N-(2-dimethylamino-ethyl)-N-methylsulphonyl-amino)-phenylamino]-1-phenyl-methylidene}-5-nitro-2-indolinone] |
| 194 °C | CCOC(=O)C1CCN(Cc2ccc(N/C(=C3\C(=O)Nc4ccc([N+](=O)[O-])cc43)c3ccccc3)cc2)CC1 [Example 176, (Z)-3-{1-[4-(4-ethoxycarbonyl-piperidinomethyl)-phenylamino]-1-phenyl-methylidene}-5-nitro-2-indolinone] |
| 170 °C | CN(C)CCN(C)C(=O)CN(c1ccc(N/C(=C2\C(=O)Nc3ccccc32)c2ccccc2)cc1)S(C)(=O)=O [Example 293, (Z)-3-{1-[4-(N—((N-(2-dimethylaminoethyl)-N-methyl-amino)-carbonylmethyl)-N-methylsulphonyl-amino)-phenylamino]-1-phenyl-methylidene}-2-indolinone] |

| SMILES | melting point |
| --- | --- |
| CC(C)(C)OC(=O)NCc1ccc(N/C(=C2\C(=O)Nc3ccc([N+](=O)[O-])cc32)c2ccccc2)cc1 [Example 113, (Z)-3-[1-(4-tert.butoxycarbonylaminomethyl-phenylamino)-1-phenyl-methylidene]-5-nitro-2-indolinone] | 234 to 236 °C (dec.) |
